Data reported in US10344000B2, “Substituted bicyclic pyrazole compounds as RORgammaT inhibitors and uses thereof” (Merck Sharp & Dohme Corp., priority 2015, dated 2019).

Biological target: human RORgammaT-Ligand Binding Domain (LBD) (Homo sapiens (Human), UniProt P51449)
Experiment: RORγ-Ligand Binding Domain TR-FRET Assay (SRC1_2 co-activator peptide)
Assay type: biochemical
Conditions: Fret IC50 (nM), HIS-tagged RORγ-LBD 3 nM, biotinylated SRC1 LXXLL peptide 100 nM, incubated overnight at 4° C.

Sequence of human RORgammaT-Ligand Binding Domain (LBD) (P51449 269-508): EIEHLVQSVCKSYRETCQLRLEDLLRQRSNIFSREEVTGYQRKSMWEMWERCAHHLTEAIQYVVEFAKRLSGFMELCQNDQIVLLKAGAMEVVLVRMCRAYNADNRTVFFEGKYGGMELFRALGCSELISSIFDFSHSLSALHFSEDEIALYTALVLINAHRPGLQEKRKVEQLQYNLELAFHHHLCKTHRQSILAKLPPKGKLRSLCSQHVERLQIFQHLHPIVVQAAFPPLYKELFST

| SMILES | IC50 [nM] |
| --- | --- |
| N#CC1(c2cccc(Cl)c2C(=O)n2nc(C3=CCC(C(=O)O)CC3)c3c2COCC3)CCC1 (single isomer, unassigned) [Example 2C-B, (1R or S)-4-(1-{[2-chloro-6-(1-cyanocyclobutyl)phenyl]carbonyl}-1,4,5,7-tetrahydropyrano[3,4-c]pyrazol-3-yl)cyclohex-3-ene-1-carboxylic acid] | 1050 |
| N#CC1(c2cccc(Cl)c2C(=O)n2nc(C3=CCC(C(=O)O)CC3)c3c2COCC3)CCC1 (single isomer, unassigned) [Example 2C-A, (1R or S)-4-(1-{[2-chloro-6-(1-cyanocyclobutyl)phenyl]carbonyl}-1,4,5,7-tetrahydropyrano[3,4-c]pyrazol-3-yl)cyclohex-3-ene-1-carboxylic acid] | 676 |

Same assay, conditions: HIS-tagged RORγ-LBD 3 nM, biotinylated SRC1 LXXLL peptide 100 nM, incubated overnight at 4° C.; read-out: Fret IC50

| SMILES | IC50 [nM] |
| --- | --- |
| O=C(O)C1CC=C(c2nn(C(=O)c3c(Cl)cccc3C3COC3)c3c2CCC(CO)C3)CC1 (single isomer, unassigned) [Example 7C, 4-((R or S)-1-(2-chloro-6-(oxetan-3-yl)benzoyl)-6-(hydroxymethyl)-4,5,6,7-tetrahydro-1H-indazol-3-yl)cyclohex-3-ene-1-carboxylic acid] | 15 |
| O=C(O)C1CC=C(c2nn(C(=O)c3c(Cl)cccc3C3CC3)c3c2CCC(O)C3)CC1 (single isomer, unassigned) [Example 10A, 4-((R or S)-1-(2-chloro-6-cyclopropylbenzoyl)-6-hydroxy-4,5,6,7-tetrahydro-1H-indazol-3-yl)cyclohex-3-ene-1-carboxylic Acid] | 57 |
| O=C(O)C1CC=C(c2nn(C(=O)c3c(Cl)cccc3C3CC3)c3c2CCC(CO)C3)CC1 (single isomer, unassigned) [Example 7A, 4-((R or S)-1-(2-chloro-6-cyclopropylbenzoyl)-6-(hydroxymethyl)-4,5,6,7-tetrahydro-1H-indazol-3-yl)cyclohex-3-ene-1-carboxylic Acid] | 9 |
| O=C(O)C1CC=C(c2nn(C(=O)c3c(C4CC4)ccc(F)c3Cl)c3c2CCC(CO)C3)CC1 (single isomer, unassigned) [Example 7B, 4-((R or S)-1-(2-chloro-6-cyclopropyl-3-fluorobenzoyl)-6-(hydroxymethyl)-4,5,6,7-tetrahydro-1H-indazol-3-yl)cyclohex-3-ene-1-carboxylic acid] | 14 |
| N#CC1(c2cccc(Cl)c2C(=O)n2nc(C3=CCC(C(=O)O)CC3)c3c2CCC3)CCC1 (centres unmarked) [Example 1F, 4-(1-{[2-chloro-6-(1-cyanocyclobutyl)phenyl]carbonyl}-1,4,5,6-tetrahydrocyclopenta[c]pyrazol-3-yl)cyclohex-3-ene-1-carboxylic acid] | 1170 |
| O=C(O)C1CCN(c2nn(C(=O)c3c(Cl)cccc3C3CC3)c3c2CCCC3)CC1 [Example 16A, 1-(1-(2-chloro-6-cyclopropylbenzoyl)-4,5,6,7-tetrahydro-1H-indazol-3-yl)piperidine-4-carboxylic Acid] | 149 |
| NCC1CCc2c(C3=CCC(C(=O)O)CC3)nn(C(=O)c3c(Cl)cccc3C3CC3)c2C1 (single isomer, unassigned) [Example 14A, 4-((R or S)-6-(aminomethyl)-1-(2-chloro-6-cyclopropylbenzoyl)-4,5,6,7-tetrahydro-1H-indazol-3-yl)cyclohex-3-ene-1-carboxylic Acid] | 1200 |
| O=C(O)C1CC=C(c2nn(C(=O)c3c(Cl)cccc3C3(C(F)(F)F)CC3)c3c2CCC(CO)C3)CC1 (single isomer, unassigned) [Example 7D, 4-((R or S)-1-(2-chloro-6-(1-(trifluoromethyl)cyclopropyl)benzoyl)-6-(hydroxymethyl)-4,5,6,7-tetrahydro-1H-indazol-3-yl)cyclohex-3-ene-1-carboxylic acid] | 5 |
| O=C(O)C1CC=C(c2nn(C(=O)c3c(Cl)cccc3C3CC3)c3c2CCC(O)C3)CC1 (single isomer, unassigned) [Example 10B, 4-((R or S)-1-(2-chloro-6-cyclopropylbenzoyl)-6-hydroxy-4,5,6,7-tetrahydro-1H-indazol-3-yl)cyclohex-3-ene-1-carboxylic Acid] | 32 |
| CC1(c2cccc(Cl)c2C(=O)n2nc(C3=CCC(C(=O)O)CC3)c3c2COCC3)CC1 (centres unmarked) [Example 1D, 4-(1-{[2-chloro-6-(1-methylcyclopropyl)phenyl]carbonyl}-1,4,5,7-tetrahydropyrano[3,4-c]pyrazol-3-yl)cyclohex-3-ene-1-carboxylic acid] | 38 |
| O=C(O)C1CC=C(c2nn(C(=O)c3c(Cl)cccc3C3CC3)c3c2OCCC3)CC1 (centres unmarked) [Example 15A, 4-(1-(2-chloro-6-cyclopropylbenzoyl)-1,5,6,7-tetrahydropyrano[3,2-c]pyrazol-3-yl)cyclohex-3-ene-1-carboxylic Acid] | 56 |
| O=C(O)C1CC=C(c2nn(C(=O)c3c(Cl)cccc3C3CC3)c3c2CCC(CO)C3)CC1 (single isomer, unassigned) [Example 6A, 4-((R or S)-1-(2-chloro-6-cyclopropylbenzoyl)-6-(hydroxymethyl)-4,5,6,7-tetrahydro-1H-indazol-3-yl)cyclohex-3-ene-1-carboxylic Acid] | 173 |
